{"source": "paper PMC12136037", "about": "“Type II kinase inhibitors that target Parkinson’s disease–associated LRRK2” (Science Advances, 2025)", "experiment_in_all_cases": "nanoBRET off-target validation", "format_in_all_cases": "cell-based", "key": {"JNK2": {"target": "T1, JNK2 (Homo sapiens, UniProt P45984)", "T1 construct": "host or cells: HEK293T (ATCC CRL-3216)", "T1 sequence (P45984 whole entry, the tested form may be a part)": "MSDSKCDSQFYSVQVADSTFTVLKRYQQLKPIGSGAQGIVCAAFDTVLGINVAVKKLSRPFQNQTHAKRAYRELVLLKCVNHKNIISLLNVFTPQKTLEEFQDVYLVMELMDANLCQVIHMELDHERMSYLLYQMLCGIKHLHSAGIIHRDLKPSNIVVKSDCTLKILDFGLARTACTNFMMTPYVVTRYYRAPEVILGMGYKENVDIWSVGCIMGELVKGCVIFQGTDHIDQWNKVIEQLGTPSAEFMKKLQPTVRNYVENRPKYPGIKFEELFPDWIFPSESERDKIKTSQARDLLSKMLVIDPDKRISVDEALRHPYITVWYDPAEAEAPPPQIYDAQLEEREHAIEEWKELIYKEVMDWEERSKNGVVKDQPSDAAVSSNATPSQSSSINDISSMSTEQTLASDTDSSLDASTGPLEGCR", "procedure": "(§1) The assay was performed as described previously ([61]). In brief, full-length kinases as listed in table S6 were obtained as plasmids cloned in frame with terminal NanoLuc-fusion (gift from Promega; table S6). […] Serially diluted inhibitor and corresponding tracer as listed in table S6 at the Tracer KD concentration taken from TracerDB (tracerdb.org) ([62]) were pipetted into white 384-well plates (Greiner, 781207) using an ECHO acoustic dispenser (Labcyte). The corresponding protein-transfected cells were added and reseeded at a density of 2 × 10^5 cells/ml after trypsinization and resuspending in Opti-MEM without phenol red (Life Technologies). The system was allowed to equilibrate for 3 hours at 37°C/5% CO2 before bioluminescence resonance energy transfer (BRET) measurements. To measure BRET, NanoBRET NanoGlo Substrate + extracellular NanoLuc Inhibitor (Promega, N2540) was added as per the manufacturer’s protocol, and filtered luminescence was measured on a PHERAstar plate reader (BMG Labtech) equipped with a luminescence filter pair [450-nm BP filter (donor) and 610-nm LP filter (acceptor)]. […] (For step-by-step protocol, see www.eubopen.org/sites/www.eubopen.org/files/attachments/2021/NanoBRET-IC50_v1_0.pdf.)"}, "JNK3": {"target": "T2, JNK3 (Homo sapiens, UniProt P53779)", "T2 construct": "host or cells: HEK293T (ATCC CRL-3216)", "T2 sequence (P53779 whole entry)": "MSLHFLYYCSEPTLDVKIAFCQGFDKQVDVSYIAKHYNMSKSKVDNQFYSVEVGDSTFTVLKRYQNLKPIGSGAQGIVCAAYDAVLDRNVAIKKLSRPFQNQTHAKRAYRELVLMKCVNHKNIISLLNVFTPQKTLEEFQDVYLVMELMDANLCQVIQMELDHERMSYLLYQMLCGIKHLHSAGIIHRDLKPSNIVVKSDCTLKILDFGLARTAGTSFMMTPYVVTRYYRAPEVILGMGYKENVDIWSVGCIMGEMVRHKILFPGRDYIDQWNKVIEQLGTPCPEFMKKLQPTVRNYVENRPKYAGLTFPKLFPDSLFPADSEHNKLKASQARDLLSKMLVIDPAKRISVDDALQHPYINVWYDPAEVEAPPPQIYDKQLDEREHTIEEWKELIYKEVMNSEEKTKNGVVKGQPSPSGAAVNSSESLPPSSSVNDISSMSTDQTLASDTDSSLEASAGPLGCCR", "procedure": "as §1"}, "STK17B": {"target": "T3, STK17B (Homo sapiens, UniProt O94768)", "T3 construct": "host or cells: HEK293T (ATCC CRL-3216)", "T3 sequence (O94768 1-372)": "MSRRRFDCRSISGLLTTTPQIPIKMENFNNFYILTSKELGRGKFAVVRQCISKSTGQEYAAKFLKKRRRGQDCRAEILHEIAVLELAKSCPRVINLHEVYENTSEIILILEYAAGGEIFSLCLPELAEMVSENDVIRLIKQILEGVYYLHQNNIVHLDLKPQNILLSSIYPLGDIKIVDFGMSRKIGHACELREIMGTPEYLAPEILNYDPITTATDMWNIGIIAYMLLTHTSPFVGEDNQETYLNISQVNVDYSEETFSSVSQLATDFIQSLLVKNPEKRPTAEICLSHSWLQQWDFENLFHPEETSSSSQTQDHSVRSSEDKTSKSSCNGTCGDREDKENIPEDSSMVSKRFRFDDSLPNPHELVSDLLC", "procedure": "as §1"}}, "note": "Values joined by “and” are separate entries in the source; they are usually repeats but may differ in a detail not shown here. Identical values can stand only once. Like-named read-outs stand apart in the source and are kept apart here."}
{"compound": "CCSc1nc(NC)c2c(-c3cccc(NC(=O)Nc4cc(C(C)(C)C)nn4-c4ccc(C)cc4)c3)c[nH]c2n1", "note": "[Compound 32]", "values": [{"measurement": "nanoBRET response normalized to 0% (no tracer) and 100% (no inhibitor) control", "setting": "JNK2; JNK2, inhibitor 5000 nM, two replicates, listed as RN341, 5 µM", "value": 50.6395, "unit": "%"}, {"measurement": "remaining activity at 5 µM", "setting": "JNK2; JNK2, inhibitor 5000 nM, two replicates, read-out: nanoBRET response normalized to 0% (no tracer) and 100% (no inhibitor) control", "value": 57.2, "unit": "%"}, {"measurement": "nanoBRET response normalized to 0% (no tracer) and 100% (no inhibitor) control", "setting": "JNK2; JNK2, inhibitor 25000 nM, two replicates, listed as RN341, 25 µM", "value": 6.955, "unit": "%"}, {"measurement": "remaining activity at 25 µM", "setting": "JNK2; JNK2, inhibitor 25000 nM, two replicates, read-out: nanoBRET response normalized to 0% (no tracer) and 100% (no inhibitor) control", "value": 9.64, "unit": "%"}, {"measurement": "EC50", "setting": "JNK2; in cellulo nanoBRET, 293T cells", "value": "< 5 µM and 2.7 µM"}, {"measurement": "EC50", "setting": "JNK3", "value": 15, "unit": "µM"}, {"measurement": "nanoBRET response normalized to 0% (no tracer) and 100% (no inhibitor) control", "setting": "JNK3; JNK3, inhibitor 8 nM, two replicates, listed as RN341, 0.008 µM", "value": 99.6644, "unit": "%"}, {"measurement": "remaining nanoBRET tracer signal at 0.008 µM", "setting": "JNK3; JNK3, inhibitor 8 nM, two replicates, read-out: nanoBRET response normalized to 0% (no tracer) and 100% (no inhibitor) control", "value": 90, "unit": "%"}, {"measurement": "nanoBRET response normalized to 0% (no tracer) and 100% (no inhibitor) control", "setting": "JNK3; JNK3, inhibitor 16 nM, two replicates, listed as RN341, 0.016 µM", "value": 91.5832, "unit": "%"}, {"measurement": "remaining nanoBRET tracer signal at 0.016 µM", "setting": "JNK3; JNK3, inhibitor 16 nM, two replicates, read-out: nanoBRET response normalized to 0% (no tracer) and 100% (no inhibitor) control", "value": 91.5, "unit": "%"}, {"measurement": "nanoBRET response normalized to 0% (no tracer) and 100% (no inhibitor) control", "setting": "JNK3; JNK3, inhibitor 50 nM, two replicates, listed as RN341, 0.05 µM", "value": 98.9095, "unit": "%"}, {"measurement": "remaining nanoBRET tracer signal at 0.05 µM", "setting": "JNK3; JNK3, inhibitor 50 nM, two replicates, read-out: nanoBRET response normalized to 0% (no tracer) and 100% (no inhibitor) control", "value": 96.2, "unit": "%"}, {"measurement": "nanoBRET response normalized to 0% (no tracer) and 100% (no inhibitor) control", "setting": "JNK3; JNK3, inhibitor 250 nM, two replicates, listed as RN341, […]", "value": 99.8628, "unit": "%"}, {"measurement": "remaining nanoBRET tracer signal at […]", "setting": "JNK3; JNK3, inhibitor 250 nM, two replicates, read-out: nanoBRET response normalized to 0% (no tracer) and 100% (no inhibitor) control", "value": 96.3, "unit": "%"}, {"measurement": "nanoBRET response normalized to 0% (no tracer) and 100% (no inhibitor) control", "setting": "JNK3; JNK3, inhibitor 500 nM, two replicates, listed as RN341, 0.5 µM", "value": 92.6932, "unit": "%"}, {"measurement": "remaining nanoBRET tracer signal at 0.5 µM", "setting": "JNK3; JNK3, inhibitor 500 nM, two replicates, read-out: nanoBRET response normalized to 0% (no tracer) and 100% (no inhibitor) control", "value": 93.9, "unit": "%"}, {"measurement": "nanoBRET response normalized to 0% (no tracer) and 100% (no inhibitor) control", "setting": "JNK3; JNK3, inhibitor 2500 nM, two replicates, listed as RN341, […]", "value": 84.3032, "unit": "%"}, {"measurement": "remaining nanoBRET tracer signal at […]", "setting": "JNK3; JNK3, inhibitor 2500 nM, two replicates, read-out: nanoBRET response normalized to 0% (no tracer) and 100% (no inhibitor) control", "value": 90.4, "unit": "%"}, {"measurement": "nanoBRET response normalized to 0% (no tracer) and 100% (no inhibitor) control", "setting": "JNK3; JNK3, inhibitor 5000 nM, two replicates, listed as RN341, 5 µM", "value": 67.4443, "unit": "%"}, {"measurement": "remaining nanoBRET tracer signal at 5 µM", "setting": "JNK3; JNK3, inhibitor 5000 nM, two replicates, read-out: nanoBRET response normalized to 0% (no tracer) and 100% (no inhibitor) control", "value": 74.7, "unit": "%"}, {"measurement": "nanoBRET response normalized to 0% (no tracer) and 100% (no inhibitor) control", "setting": "JNK3; JNK3, inhibitor 25000 nM, two replicates, listed as RN341, 25 µM", "value": 34.5338, "unit": "%"}, {"measurement": "remaining nanoBRET tracer signal at 25 µM", "setting": "JNK3; JNK3, inhibitor 25000 nM, two replicates, read-out: nanoBRET response normalized to 0% (no tracer) and 100% (no inhibitor) control", "value": 48.6, "unit": "%"}, {"measurement": "EC50", "setting": "STK17B", "value": "≥ 20", "unit": "µM"}, {"measurement": "nanoBRET response normalized to 0% (no tracer) and 100% (no inhibitor) control", "setting": "STK17B; STK17B, inhibitor 8 nM, two replicates, listed as RN341, 0.008 µM", "value": 97.0874, "unit": "%"}, {"measurement": "NanoBRET tracer signal (% of no-inhibitor control) at 0.008 µM", "setting": "STK17B; STK17B, inhibitor 8 nM, two replicates, read-out: nanoBRET response normalized to 0% (no tracer) and 100% (no inhibitor) control", "value": 97.6, "unit": "%"}, {"measurement": "nanoBRET response normalized to 0% (no tracer) and 100% (no inhibitor) control", "setting": "STK17B; STK17B, inhibitor 16 nM, two replicates, listed as RN341, 0.016 µM", "value": 82.8095, "unit": "%"}, {"measurement": "NanoBRET tracer signal (% of no-inhibitor control) at 0.016 µM", "setting": "STK17B; STK17B, inhibitor 16 nM, two replicates, read-out: nanoBRET response normalized to 0% (no tracer) and 100% (no inhibitor) control", "value": 94.7, "unit": "%"}, {"measurement": "nanoBRET response normalized to 0% (no tracer) and 100% (no inhibitor) control", "setting": "STK17B; STK17B, inhibitor 50 nM, two replicates, listed as RN341, 0.05 µM", "value": 109.03, "unit": "%"}, {"measurement": "NanoBRET tracer signal (% of no-inhibitor control) at 0.05 µM", "setting": "STK17B; STK17B, inhibitor 50 nM, two replicates, read-out: nanoBRET response normalized to 0% (no tracer) and 100% (no inhibitor) control", "value": 112, "unit": "%"}, {"measurement": "nanoBRET response normalized to 0% (no tracer) and 100% (no inhibitor) control", "setting": "STK17B; STK17B, inhibitor 250 nM, two replicates, listed as RN341, […]", "value": 93.8885, "unit": "%"}, {"measurement": "NanoBRET tracer signal (% of no-inhibitor control) at […]", "setting": "STK17B; STK17B, inhibitor 250 nM, two replicates, read-out: nanoBRET response normalized to 0% (no tracer) and 100% (no inhibitor) control", "value": 111, "unit": "%"}, {"measurement": "nanoBRET response normalized to 0% (no tracer) and 100% (no inhibitor) control", "setting": "STK17B; STK17B, inhibitor 500 nM, two replicates, listed as RN341, 0.5 µM", "value": "103.232% and 77.6568%"}, {"measurement": "NanoBRET tracer signal (% of no-inhibitor control) at […]", "setting": "STK17B; STK17B, inhibitor 2500 nM, two replicates, read-out: nanoBRET response normalized to 0% (no tracer) and 100% (no inhibitor) control", "value": "122% and 101%"}, {"measurement": "nanoBRET response normalized to 0% (no tracer) and 100% (no inhibitor) control", "setting": "STK17B; STK17B, inhibitor 5000 nM, two replicates, listed as RN341, 5 µM", "value": "104.626% and 83.1368%"}, {"measurement": "nanoBRET response normalized to 0% (no tracer) and 100% (no inhibitor) control", "setting": "STK17B; STK17B, inhibitor 25000 nM, two replicates, listed as RN341, 25 µM", "value": 75.7774, "unit": "%"}, {"measurement": "NanoBRET tracer signal (% of no-inhibitor control) at 25 µM", "setting": "STK17B; STK17B, inhibitor 25000 nM, two replicates, read-out: nanoBRET response normalized to 0% (no tracer) and 100% (no inhibitor) control", "value": 80.3, "unit": "%"}]}
